The series can be described thus: Thermal stability note in synthesis of Example 2. Type of series: physicochemical. The note with it: observation on isolated title compound. How it is done: To a solution of Intermediate 27 (42 mg, 0.068 mmol) in N,N-dimethylformamide (1.5 mL) a solution of formic hydrazide (14 mg, 0.229 mmol) in N,N-dimethylformamide (0.3 mL) followed by mercury(II) chloride (62 mg, 0.229 mmol) were introduced. After 5 minutes stirring at room temperature under an atmosphere of nitrogen, a solution of triethylamine (23 mg, 0.229 mmol) in N,N-dimethylformamide (0.2 mL) was introduced and the reaction warmed to 80° C. for 1.7 hours. After cooling to room temperature, the reaction mixture was diluted with dichloromethane (10 mL), kieselguhr (1.0 g) was introduced, and the suspension stirred for 10 minutes. The suspension was then filtered and the filter-cake washed with dichloromethane (10 mL). Evaporation of the combined filtrates in-vacuo furnished a residue which was purified by low pH preparative liquid chromatography to furnish the title compound (2.3 mg at 88% purity LCMS-UV215, 5% yield) as a colourless solid. LCMS [m+H]^+ 553, RT 2.07 min (Method 3).

As for `Cc1cc(Nc2nncn2C2CCc3cc4cnc(C5CC5)cc4c(S(=O)(=O)NCC(C)(C)F)c3C2)n(C)n1` (stereo not shown) [Example 2, 3-cyclopropyl-7-[3-[(2,5-dimethylpyrazol-3-yl)amino]-1,2,4-triazol-4-yl]-N-(2-fluoro-2-methylpropyl)-6,7,8,9-tetrahydrobenzo[g]isoquinoline-5-sulfonamide], the thermal stability result was “thermally unstable”.

The values above are taken from patent publication US12410161B2, “Tetrahydrobenzo-quinoline sulfonamides derivative compounds” (UCB Biopharma SRL, priority 2019, dated 2025).
